Consider 40 compounds from patent publication US6794386B2, “β-amino acid compounds as integrin antagonists” (Bayer Aktiengesellschaft, priority 2000, dated 2004).

The IC50 is the midpoint of a concentration-inhibition curve.

In the first assay the target is T1, VLA-4 (Homo sapiens, UniProt P05556+P13612).
T1 construct: host or cells: Jurkat clone E6-1
T1 sequence (P13612 34-1032): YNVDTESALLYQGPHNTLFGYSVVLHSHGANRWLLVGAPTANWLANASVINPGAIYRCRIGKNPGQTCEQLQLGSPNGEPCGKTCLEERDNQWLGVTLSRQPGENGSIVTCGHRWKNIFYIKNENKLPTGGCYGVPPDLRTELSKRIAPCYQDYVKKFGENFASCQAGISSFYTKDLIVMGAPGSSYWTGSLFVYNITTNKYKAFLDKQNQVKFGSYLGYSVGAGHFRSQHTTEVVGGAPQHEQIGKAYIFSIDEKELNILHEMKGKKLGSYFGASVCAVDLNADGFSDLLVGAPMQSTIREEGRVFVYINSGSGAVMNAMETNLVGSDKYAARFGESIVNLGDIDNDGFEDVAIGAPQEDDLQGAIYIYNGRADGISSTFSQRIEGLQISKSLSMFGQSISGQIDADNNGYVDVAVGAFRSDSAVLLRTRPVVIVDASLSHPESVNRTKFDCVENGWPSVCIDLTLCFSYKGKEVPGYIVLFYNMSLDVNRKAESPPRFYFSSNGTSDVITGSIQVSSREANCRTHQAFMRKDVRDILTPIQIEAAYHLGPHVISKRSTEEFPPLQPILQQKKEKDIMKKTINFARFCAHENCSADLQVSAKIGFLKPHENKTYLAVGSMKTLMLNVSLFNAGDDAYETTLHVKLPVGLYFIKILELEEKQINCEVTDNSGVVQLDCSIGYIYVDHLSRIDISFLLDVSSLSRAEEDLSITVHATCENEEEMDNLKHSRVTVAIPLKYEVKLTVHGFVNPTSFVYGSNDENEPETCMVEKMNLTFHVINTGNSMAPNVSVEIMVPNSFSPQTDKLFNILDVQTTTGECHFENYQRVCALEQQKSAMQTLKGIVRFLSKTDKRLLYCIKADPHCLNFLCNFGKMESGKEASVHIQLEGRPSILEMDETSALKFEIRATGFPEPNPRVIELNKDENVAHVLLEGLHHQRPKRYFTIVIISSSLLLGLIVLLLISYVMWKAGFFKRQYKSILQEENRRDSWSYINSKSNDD
T1 sequence (P05556 21-798): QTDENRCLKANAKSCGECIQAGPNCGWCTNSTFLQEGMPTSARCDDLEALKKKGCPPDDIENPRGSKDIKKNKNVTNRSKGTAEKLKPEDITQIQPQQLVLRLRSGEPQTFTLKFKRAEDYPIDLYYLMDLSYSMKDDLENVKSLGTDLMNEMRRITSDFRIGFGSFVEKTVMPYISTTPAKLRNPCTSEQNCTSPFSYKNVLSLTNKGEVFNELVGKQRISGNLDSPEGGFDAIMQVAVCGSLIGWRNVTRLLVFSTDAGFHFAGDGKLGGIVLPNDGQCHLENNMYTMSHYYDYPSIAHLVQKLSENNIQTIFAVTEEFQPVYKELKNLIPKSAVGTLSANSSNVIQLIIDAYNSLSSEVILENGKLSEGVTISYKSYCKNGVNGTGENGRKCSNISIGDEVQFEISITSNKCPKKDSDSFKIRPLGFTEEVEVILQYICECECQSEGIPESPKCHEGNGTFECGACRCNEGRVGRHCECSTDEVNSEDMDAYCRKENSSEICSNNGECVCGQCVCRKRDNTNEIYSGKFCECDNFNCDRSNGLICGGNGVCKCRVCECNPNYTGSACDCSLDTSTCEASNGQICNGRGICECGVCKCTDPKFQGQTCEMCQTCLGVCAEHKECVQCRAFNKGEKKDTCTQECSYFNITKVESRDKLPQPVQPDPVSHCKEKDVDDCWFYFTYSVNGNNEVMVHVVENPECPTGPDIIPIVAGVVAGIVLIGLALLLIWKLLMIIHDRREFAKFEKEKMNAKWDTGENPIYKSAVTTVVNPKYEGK
Kind of assay: Adhesion of Jurkat cells to immobilized VCAM-1 (domains 1-3). Also noted: scale not given here. The note with it: adhesion of CFSE-labeled Jurkat cells to recombinant human VCAM-1 (domains 1-3) coated plates; compounds as yielded by solid phase synthesis, purity about 40-90%. It counts as cell-based. The procedure:
In Vitro Assay: Adhesion of Jurkat Cells to Immobilized VCAM-1 (Domains 1-3).
Preparation of Fluorescence Labeled Jurkat Cells:
Jurkat cells (American Type Culture Collection, Clone E6-1, ATCC TIB-152) were cultured in RPMI 1640 medium (Nikken Bio Medical Laboratory, CM1101) supplemented with 10% fetal bovine serum (Hyclone, A-1119-L), 100 U/ml penicilin (Gibco BRL, 15140-122) and 100 μg/ml streptomycin (Gibco BRL, 15140-122) in a humidified incubator at 37° C. with 5% CO2.
Jurkat cells were incubated with phosphate balanced solution (PBS, Nissui, 05913) containing 25 μM of 5(-and-6)-carboxyfluorescein diacetate, succinimidyle ester (CFSE, Dojindo Laboratories, 345-06441) for 20 min at room temperature while gently swirling every 5 min. After centrifugation at 1000 rpm for 5 min, the cell pellet was resuspended with adhesion assay buffer at a cell density of 2×10^6 cells/ml. The adhesion assay buffer was composed of 24 mM Tris-HCl (pH 7.4), 137 mM NaCl, 27 mM KCl, 4 mM glucose, 0.1% bovine serum albumin (BSA, Sigma, A9647) and 2 mM MnCl2.
Preparation of VCAM-1 (Extracellular Domains 1-3):
Complementary DNA (cDNA) encoding 7-domain form of VCAM-1 (GenBank accession #M60335) was obtained using Rapid-Screen™ cDNA library panels (OriGene Technologies, Inc) at Takara Gene Analysis Center (Shiga, Japan). The primers used were 5′-CCAAGGCAGAGTACGCAAAC-3′ (sence) and 5′-TGGCAGGTATTATTAAGGAG-3′ (antisense). PCR amplification of the 3-domain VCAM-1 cDNA was perform using Pfu DNA polymerase (Stratagene) with the following sets of primers: (U-VCAMd1-3) 5′-CCATATGGTACCTGATCAATTTAAAATCGAGACCACCCCAGAA-3′; (L-VCAMd1-3) 5′-CCATATAGCAATCCTAGGTCCAGGGGAGATCTCAACAGTAAA-3′. PCR cycle was 94° C. for 45 sec, 55° C. for 45 sec, 72° C. for 2 min, repeating 15 cycles. After the purification of the PCR product, the fragment was digested with KpnI-AvrII. The digested fragment was ligated into pBluescript IISK(−) (Strategene), which was linealized by digesting with KpnI-XhoI. The ligation was followed by transformation to a Dam/Dcm methylase-free E. coli strain SCS110 (Strategene) to create the donor plasmid pH7. To direct VCAM-1 molecule into the insect cell secretory pathway, the VCAM-1 coding sequence was fused to signal peptide sequence of honeybee melittin. The resulting melittin-VCAM fusion was placed in correct orientation to the baculoviris polyhedrin promoter. Baculovirus transfer vector containing first 3-domain form VCAM-1 (pH10) was constructed by ligation of 0.9 kb fragment from AvrII/Klenow/BclI digests of pH7 into SalI/Klenow/BamHI digests of pMelBacB (Invitrogen). Recombinant baculovirus was generated by using Bac-N-Blue™ Transfection kit (Invitrogen) according to the manufacture's instruction. The recombinant virus was amplified by infection to High-Five™ insect cells for 5-6 days, and virus titer was determined by plaque assay.
High-Five™ insect cells were pelleted in a 225 ml conical tube by centrifugation at 1000 rpm for 5 min After discarding the supernatant, the pellet was resuspended in 1.5×10^9 pfu (MOI=5) of high-titer virus solution, followed by incubation for 1.5 hours at room temperature. The cells were pelleted again and washed once in fresh Express Five™ serum free medium. The cells were pelleted again and finally, resuspended in 200 ml of fresh Express Five™ medium, transferred to a 1,000 ml shaker flask, and incubated in a shaker at 27° C., 130 rpm, for 48 hours before the culture supernatant was collected. The purification of 3-domain form of VCAM-1 from the culture supernatant was performed by one-step anion exchange chromatography. Protein concentration was determined by using Coomassie protein assay reagent (Pierce) according to the manufacture's instruction.
Preparation of Microtiter Plates:
Recombinant human VCAM-1 (extracellular domains 1-3) was dissolved at 0.5 μg/ml in PBS. […]
As to `COc1ccc(-c2ccc(C[C@H](NC(=O)C3CCCN(c4ncnc(N5CCNCC5)c4F)C3)C(=O)O)cc2)cc1` (stereo partly shown) [Example 2.19], the IC50 result is listed as “C-D”.
For the compound `Cc1ccc(-c2ccc(C[C@H](NC(=O)C3CCCN(c4ncnc(NC5CCCCC5)c4F)C3)C(=O)O)cc2)cc1` (stereo partly shown) [Example 2.5], the IC50 entry was “C-D”.
On the same count and under the same terms, under `COc1ccc(Cl)cc1S(=O)(=O)N1CCCC(C(=O)N[C@@H](Cc2ccc(-c3ccc(Cl)cc3Cl)cc2)C(=O)O)C1` (stereo partly shown) [Example 1.100] stands “C-D”; under `COc1ccc(S(=O)(=O)N2CCCC(C(=O)N[C@@H](Cc3ccc(-c4ccccc4)cc3)C(=O)O)C2)cc1OC` (stereo partly shown) [Example 1.60], “C-D”.
Turning to `Cc1ccccc1-c1ccc(C[C@H](NC(=O)C2CCCN(C(=O)C3CCCCC3)C2)C(=O)O)cc1` (stereo partly shown) [Example 1.34], the IC50 result is given as “C-D”.
Still for that read-out and setting: under `O=C(N[C@@H](Cc1ccc(-c2cc(Cl)ccc2Cl)cc1)C(=O)O)C1CCCN(C(=O)C2CCCCC2)C1` (stereo partly shown) [Example 1.53] stands “C-D”; under `CCCCN(C)c1ncnc(N2CCCC(C(=O)N[C@@H](Cc3ccc(-c4ccc(Cl)c(Cl)c4)cc3)C(=O)O)C2)c1F` (stereo partly shown) [Example 2.50], “C-D”.
For the compound `Cc1ccc(C(=O)N2CCCC(C(=O)N[C@@H](Cc3ccc(-c4ccc(C)cc4)cc3)C(=O)O)C2)cc1` (stereo partly shown) [Example 1.19], the IC50 result is listed as “C-D”.
Turning to `COC(=O)c1ccccc1S(=O)(=O)N1CCCC(C(=O)N[C@@H](Cc2ccc(-c3ccccc3)cc2)C(=O)O)C1` (stereo partly shown) [Example 1.57], the IC50 entry is listed as “C-D”.
On the same count and under the same terms, the result for `Cc1ccccc1-c1ccc(C[C@H](NC(=O)C2CCCN(S(=O)(=O)c3cc(Cl)cc(Cl)c3)C2)C(=O)O)cc1` (stereo partly shown) [Example 1.92] reads “C-D”; that for `Cc1ccc(-c2ccc(C[C@H](NC(=O)C3CCCN(C(=O)Oc4c(C)cc(C)cc4C)C3)C(=O)O)cc2)cc1` (stereo partly shown) [Example 1.23], “C-D”.
The same measure, in the same setting: the result for `Cc1ccc(C(=O)N2CCCC(C(=O)N[C@@H](Cc3ccc(-c4cc(Cl)ccc4Cl)cc3)C(=O)O)C2)cc1` (stereo partly shown) [Example 1.51] reads “C-D”; that for `CC1(C)C2CCC1(CS(=O)(=O)N1CCCC(C(=O)N[C@@H](Cc3ccc(-c4ccc(Cl)cc4Cl)cc3)C(=O)O)C1)C(=O)C2` (stereo partly shown) [Example 1.93], “C-D”; that for `O=C(N[C@@H](Cc1ccc(-c2ccccc2)cc1)C(=O)O)C1CCCN(S(=O)(=O)c2ccc3ccccc3c2)C1` (stereo partly shown) [Example 1.58], “C-D”.
The same measure, in the same setting: under `COc1ccc(S(=O)(=O)N2CCCC(C(=O)N[C@@H](Cc3ccc(-c4ccc(C)cc4)cc3)C(=O)O)C2)cc1OC` (stereo partly shown) [Example 1.70] stands “C-D”.
Consider `Cc1ccccc1-c1ccc(C[C@H](NC(=O)C2CCCN(c3ncnc(N(C)Cc4ccccc4)c3F)C2)C(=O)O)cc1` (stereo partly shown) [Example 2.28], for which the IC50 result is “C-D”.

Staying with this assay, now noted: adhesion of CFSE-labeled Jurkat cells to recombinant human VCAM-1 (domains 1-3) coated plates; compounds as yielded by solid phase synthesis, purity about 40-90%; read-out: IC50.
In the case of `COc1ccccc1C(=O)N1CCCC(C(=O)N[C@@H](Cc2ccc(NC(=O)NC3CCN(Cc4ccccc4)CC3)cc2)C(=O)O)C1` (stereo partly shown) [Example 4.24], the IC50 fell in the range of 500 to 2000 nM.
On the same count and under the same terms, the result for `O=C(Nc1ccc(C[C@H](NC(=O)C2CCCN(C(=O)Cc3ccccc3)C2)C(=O)O)cc1)NC1CCN(Cc2ccccc2)CC1` (stereo partly shown) [Example 4.26] reads 2000 to 10000 nM; that for `O=C(N[C@@H](Cc1ccc(NC(=O)N2CCOCC2)cc1)C(=O)O)C1CCCN(S(=O)(=O)c2ccc3ccccc3c2)C1` (stereo partly shown) [Example 4.30], not above 500 nM.
The same measure, in the same setting: the result for `CN1CCN(C(=O)Nc2ccc(C[C@H](NC(=O)C3CCCN(C(=O)Cc4cccs4)C3)C(=O)O)cc2)CC1` (stereo partly shown) [Example 4.2] reads not above 500 nM.
The same measure, in the same setting: the result for `O=C(N[C@@H](Cc1ccc(NC(=O)N2CCN(c3ccccc3)CC2)cc1)C(=O)O)C1CCCN(C(=O)Cc2cccs2)C1` (stereo partly shown) [Example 4.18] reads not above 500 nM.
As to `CN1CCN(C(=O)Nc2ccc(C[C@H](NC(=O)C3CCCN(c4ncnc(NCCc5ccccc5)c4F)C3)C(=O)O)cc2)CC1` (stereo partly shown) [Example 5.25], the IC50 lay in the range of 500 to 2000 nM.
The same measure, in the same setting: the result for `O=C(N[C@@H](Cc1ccc(-c2cc(Cl)ccc2Cl)cc1)C(=O)O)C1CCCN(S(=O)(=O)Cc2ccccc2)C1` (stereo partly shown) [Example 1.6] reads not above 500 nM; that for `CN1CCN(C(=O)Nc2ccc(C[C@H](NC(=O)C3CCCN(c4ncnc(N5CCN(c6ccccc6)CC5)c4F)C3)C(=O)O)cc2)CC1` (stereo partly shown) [Example 5.14], 2000 to 10000 nM; that for `O=C(N[C@@H](Cc1ccc(NC(=O)N2CCN(c3ccccc3)CC2)cc1)C(=O)O)C1CCCN(c2ncnc(NCC(c3ccccc3)c3ccccc3)c2F)C1` (stereo partly shown) [Example 5.19], 500 to 2000 nM.
Still for that read-out and setting: the result for `O=C(N[C@@H](Cc1ccc(NC(=O)N2CCN(c3ccccc3)CC2)cc1)C(=O)O)C1CCCN(c2ncnc(N3CCCC3)c2F)C1` (stereo partly shown) [Example 5.10] reads 2000 to 10000 nM.
On the same count and under the same terms, the result for `COc1ccc(-c2ccc(C[C@H](NC(=O)C3CCCN(C(=O)c4ccccc4Cl)C3)C(=O)O)cc2)cc1` (stereo partly shown) [Example 1.26] reads 500 to 2000 nM; that for `O=C(N[C@@H](Cc1ccc(NC(=O)N2CCCCC2)cc1)C(=O)O)C1CCCN(S(=O)(=O)c2ccc3ccccc3c2)C1` (stereo partly shown) [Example 4.41], not above 500 nM; that for `COc1ccccc1C(=O)N1CCCC(C(=O)N[C@@H](Cc2ccc(NC(=O)N3CCOCC3)cc2)C(=O)O)C1` (stereo partly shown) [Example 4.22], not above 500 nM.
For the compound `CN1CCN(C(=O)Nc2ccc(C[C@H](NC(=O)C3CCCN(S(=O)(=O)Cc4ccccc4)C3)C(=O)O)cc2)CC1` (stereo partly shown) [Example 4.28], the IC50 was 500 to 2000 nM.
Still for that read-out and setting: under `Nc1ncnc(N2CCCC(C(=O)N[C@@H](Cc3ccc(NC(=O)N4CCN(c5ccccc5)CC4)cc3)C(=O)O)C2)c1F` (stereo partly shown) [Example 5.42] stands not above 500 nM; under `COc1ccccc1C(=O)N1CCCC(C(=O)N[C@@H](Cc2ccc(NC(=O)N3CCN(c4ccccc4)CC3)cc2)C(=O)O)C1` (stereo partly shown) [Example 4.14], not above 500 nM.
Same read-out and setting: under `O=C(N[C@@H](Cc1ccc(-c2ccc(Cl)cc2Cl)cc1)C(=O)O)C1CCCN(S(=O)(=O)c2c(Cl)cccc2Cl)C1` (stereo partly shown) [Example 1.97] stands 2000 to 10000 nM.
On to `O=C(N[C@@H](Cc1ccc(NC(=O)N2CCN(c3ccccc3)CC2)cc1)C(=O)O)C1CCCN(c2ncnc(NC3CCN(Cc4ccccc4)CC3)c2F)C1` (stereo partly shown) [Example 5.23], for which the IC50 was 500 to 2000 nM.
Still for that read-out and setting: under `O=C(N[C@@H](Cc1ccc(NC(=O)N2CCN(c3ccccc3)CC2)cc1)C(=O)O)C1CCCN(c2ncnc(N3CCSCC3)c2F)C1` (stereo partly shown) [Example 5.17] stands 500 to 2000 nM; under `CN(C)CCNc1ncnc(N2CCCC(C(=O)N[C@H](Cc3ccc(NC(=O)N4CCN(C)CC4)cc3)C(=O)O)C2)c1F` (stereo partly shown) [Example 5.5], 2000 to 10000 nM; under `O=C(N[C@@H](Cc1ccc(NC(=O)N2CCN(c3ccccc3)CC2)cc1)C(=O)O)C1CCCN(c2ncnc(NCc3ccncc3)c2F)C1` (stereo partly shown) [Example 5.37], 500 to 2000 nM.
Same read-out and setting: under `O=C(N[C@@H](Cc1ccc(NC(=O)N2CCc3ccccc3C2)cc1)C(=O)O)C1CCCN(c2ncnc(NCc3ccncc3)c2F)C1` (stereo partly shown) [Example 5.44] stands 500 to 2000 nM.
On the same count and under the same terms, the result for `COc1ccc(CC(=O)N2CCCC(C(=O)N[C@H](Cc3ccc(NC(=O)N4CCc5ccccc5C4)cc3)C(=O)O)C2)cc1` (stereo partly shown) [Example 4.23] reads 500 to 2000 nM; that for `O=C(N[C@@H](Cc1ccc(NC(=O)N2CCOCC2)cc1)C(=O)O)C1CCCN(C(=O)Cc2ccccc2)C1` (stereo partly shown) [Example 4.21], 500 to 2000 nM.
